For one data set, the system named is HEK293. The data set can be described thus: Cytotoxicity against human HEK293 cells. Format: cell-based.
Another data set deals with SK-LU-1. The data set can be described thus: Cytotoxicity against human SK-LU-1 cells. Format: functional, cell-based.
The next data set concerns KB. The data set can be described thus: Cytotoxicity against human KB cells. Format: functional, cell-based.
Another data set relates to MCF7. The data set can be described thus: Cytotoxicity against human MCF7 cells. Format: functional, cell-based.
A further data set deals with HepG2. The data set can be described thus: Cytotoxicity against human HepG2 cells. The class given is functional, cell-based.
Data set [1] can be described thus: Selectivity index, ratio of IC50 for human HEK293 cells to IC50 for human SK-LU-1 cells.
Data set [2] can be described thus: Selectivity index, ratio of IC50 for human HEK293 cells to IC50 for human HepG2 cells. The class given is toxicity. The settings on record: HEK293 cells and HepG2 cells, read-out: Ratio IC50.

pIC50: −log10 of the molar value. Some results are limits rather than exact numbers.

Broadly, the pIC50 is −log10 of the IC50, conventionally taken in molar units.

Take `O=C1OCC2=C1C(c1ccc(C(F)(F)F)cc1)C1=C(N2)C(=O)c2ccccc2C1=O` (stereo not drawn): the pIC50 in the data set with HEK293 is 5.12; with SK-LU-1, 6.29; in the data set on KB, 6.10; in the data set on MCF7, below 5.60; in the data set with HepG2 it was 5.91.
Regarding `COc1cccc(C2C3=C(COC3=O)NC3=C2C(=O)c2ccccc2C3=O)c1` (stereo not drawn), the pIC50 with HEK293 was 5.03; with SK-LU-1, above 7.40; with KB, 5.91; in the data set with MCF7 it was below 5.60; in the data set on HepG2, 6.34. In addition, the “Ratio IC50” value in data set [1] was “>=200”. The selectivity ratio in data set [2] is at least 200.
Consider `COc1ccc(C2C3=C(COC3=O)NC3=C2C(=O)c2ccccc2C3=O)cc1` (stereo not drawn), for which the pIC50 with HEK293 was 5.09; in the data set on SK-LU-1, 6.06; with KB it was 6.06; in the data set on MCF7 it was below 5.60; in the data set on HepG2 it was 5.69.
Turning to `O=C1OCC2=C1C(c1ccc(F)cc1)C1=C(N2)C(=O)c2ccccc2C1=O` (stereo not drawn), the pIC50 with HEK293 is 5.27; in the data set on SK-LU-1, 6.55; in the data set with KB, 5.67; with MCF7, below 5.60; with HepG2, 6.36.
The like results for `O=C1OCC2=C1C(c1ccc3c(c1)C(=O)OC3)C1=C(N2)C(=O)c2ccccc2C1=O` (stereo not drawn) were, in that order, 5.32, 7.10, 5.73, below 5.60 and 6.33.
The like results for `O=C1OCC2=C1C(c1cccc3ccccc13)C1=C(N2)C(=O)c2ccccc2C1=O` (stereo not drawn) were, in that order, 4.83, below 5.60, below 5.60, below 5.60 and below 5.60.
With `O=C1OCC2=C1C(c1ccccc1)C1=C(N2)C(=O)c2ccccc2C1=O` (stereo not drawn), the pIC50 with HEK293 was 5.87; in the data set with SK-LU-1, above 7.36; with KB, 5.81; in the data set with MCF7, 5.70; with HepG2, above 7.36. Moreover, the “Ratio IC50” value in data set [1] was “>=200”. In addition, the selectivity ratio in data set [2] is at least 200.
On to `COc1cc(C2C3=C(COC3=O)NC3=C2C(=O)c2ccccc2C3=O)ccc1O` (stereo not drawn), for which the pIC50 with HEK293 was 5.85; in the data set with SK-LU-1 it was 6.39; in the data set on KB, 5.72; with MCF7, below 5.60; with HepG2, 6.39.
For `O=C1OCC2=C1C(c1ccc(Cl)cc1)C1=C(N2)C(=O)c2ccccc2C1=O` (stereo not drawn), the pIC50 was 5.23 with HEK293; 6.30 in the data set on SK-LU-1; 5.84 with KB; below 5.60 with MCF7; 5.87 in the data set with HepG2.
The like results for `O=C1OCC2=C1C(c1ccccc1[N+](=O)[O-])C1=C(N2)C(=O)c2ccccc2C1=O` (stereo not drawn) were, in that order, 5.00, 5.65, 5.63, below 5.60 and below 5.60.
Take `O=C1OCC2=C1C(c1cccc([N+](=O)[O-])c1)C1=C(N2)C(=O)c2ccccc2C1=O` (stereo not drawn): the pIC50 in the data set with HEK293 is 5.83; in the data set on SK-LU-1 it was above 7.41; in the data set with KB, 5.94; in the data set on MCF7, 5.66; with HepG2, above 7.41. Moreover, the “Ratio IC50” value in data set [1] is “>=200”. The selectivity ratio in data set [2] is at least 200.
`O=C1OCC2=C1C(c1cccc(Br)c1)C1=C(N2)C(=O)c2ccccc2C1=O` (stereo not drawn): the pIC50 with HEK293 was 5.14; in the data set on SK-LU-1, above 7.44; in the data set on KB, 5.77; in the data set with MCF7, below 5.60; in the data set on HepG2 it was above 7.44. Further, in data set [1], the “Ratio IC50” value is reported as “>=200”. The selectivity ratio in data set [2] was at least 200.
For `O=C1OCC2=C1C(c1ccccc1F)C1=C(N2)C(=O)c2ccccc2C1=O` (stereo not drawn), the pIC50 in the data set with HEK293 was 4.99; in the data set on SK-LU-1 it was 6.55; in the data set with KB, 5.92; in the data set on MCF7 it was below 5.60; with HepG2, 6.38.
The matching figures for `O=C1OCC2=C1C(c1ccc(Br)cc1)C1=C(N2)C(=O)c2ccccc2C1=O` (stereo not drawn): 5.08, 6.35, 5.67, below 5.60 and 5.82.
The like results for `O=C1OCC2=C1C(c1ccc3ccccc3c1)C1=C(N2)C(=O)c2ccccc2C1=O` (stereo not drawn) were, in that order, 5.12, 5.99, below 5.60, below 5.60 and 5.77.
As for `Cc1ccc(C2C3=C(COC3=O)NC3=C2C(=O)c2ccccc2C3=O)cc1` (stereo not drawn), the pIC50 with HEK293 is 4.67; with SK-LU-1 it was 5.78; with KB, below 5.60; in the data set with MCF7, below 5.60; with HepG2, 5.65.
Take `Cc1c2ccncc2c(C)c2c1[nH]c1ccccc12` [ELLIPTECINE]: the pIC50 was 5.77 in the data set with HEK293; 5.81 in the data set on SK-LU-1; 5.76 with KB; 5.80 in the data set on MCF7; 5.78 in the data set with HepG2.

(Values after ChEMBL document CHEMBL4732191, “Synthesis of novel potent cytotoxicy podophyllotoxin-naphthoquinone compounds via microwave-assited multicomponent domino reactions” (Bioorg Med Chem Lett, 2021).)
